From patent publication US20070099888A1, “Inflammation Inhibitor Comprising Zinc Salt of Acylamino Acid” (priority 2004, published 2007)

Tested on: AP-1
Test: Effect of the zinc salt of acylamino acid on AP-1 activation by ultraviolet light (gel shift assay)
Type: cell-based
Conditions: human dermal fibroblasts; 50 μM test compound added 18 hours before UVA 20 J/cm2; nuclear protein collected after 4 to 5 hours
Protocol: After 18 hours, the culture medium was replaced with a phenol red-free medium. By using […]-80 (manufactured by Toshiba Medical Supply Co., Ltd.), the fibroblasts were irradiated with ultraviolet light (UVA: 20 J/cm2). After 4 to 5 hours, the cells were collected, and a nuclear protein was extracted by a standard method. With regard to the obtained nuclear protein, activated AP-1 was detected by a gel shift assay. By measuring the radioactivity value of the AP-1 band using a bioimaging analyzer, BAS2000 (manufactured by Fuji Film Co., Ltd.), the amount of AP-1 was quantified. The inhibition ratio of activation of AP-1 of the test compound was calculated by the following formula. […] A1: radioactivity value of AP-1 band with addition of test compound […] A3: radioactivity value of AP-1 band without addition of test compound and without ultraviolet irradiation

Structure (SMILES) | Inhibition ratio of activation of AP-1
CCCCCCCCCCCC(=O)NCC(=O)[O-].CCCCCCCCCCCC(=O)NCC(=O)[O-].[Zn+2] [Zinc salt of N-lauroyl glycine] | 59.2%
CCCCCCCCCCCC(=O)N[C@@H](CCC(=O)[O-])C(=O)[O-].[Zn+2] [Zinc salt of N-lauroyl-L-glutamic acid] | 89.6%
N[C@@H](CCC(=O)[O-])C(=O)[O-].[Zn+2] [Zinc salt of L-glutamic acid] | 2.4%
NCC(=O)[O-].NCC(=O)[O-].[Zn+2] [Zinc salt of glycine] | −72.8%
CCCCCCCCCCCC(=O)[O-].CCCCCCCCCCCC(=O)[O-].[Zn+2] [Zinc salt of lauric acid] | 9.1%
CCCCCCCCCCCC(=O)N[C@@H](Cc1c[nH]cn1)C(=O)[O-].CCCCCCCCCCCC(=O)N[C@@H](Cc1c[nH]cn1)C(=O)[O-].[Zn+2] [Zinc salt of N-lauroyl-L-histidine] | 54.8%
